Our source for the EC50 values is patent US20260007758A1, “SO[…]-2 RECEPTOR (SST2R) NON-PEPTIDE DRUG CONJUGATES AND USES THEREOF” (Crinetics Pharmaceuticals, Inc., priority 2024, published 2026).

Holding throughout (assay type): cell-based
Assay [1] has as its target T1, human somatostatin receptor subtype 2 (Homo sapiens, UniProt P30874).
T1 construct: expressed in transfected cells
In words: Functional assay for SSTR2 agonists (HTRF cAMP). The note with it: CHO-K1 cells stably expressing human SST2; NKH477-stimulated cAMP; 20 min at 37 C; read-out: hSST2 cAMP Avg EC50. In outline:
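Agonist activity read as fall in intracellular cAMP: HTRF 665/620 nm ratio regressed to a cAMP standard curve, EC50 fitted. Stable human SSTR2 CHO-K1 cells exposed 20 min at 37 °C to compound, final concentrations typically 0-10,000 nM.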

A further assay concerns the target T2, SST2 (Homo sapiens, UniProt P30874).
T2 construct: host or cells: PathHunter CHO-K1 SST2 cells
In words: PathHunter CHO-K1 SST2 Internalization Assay. The note with it: PathHunter CHO-K1 SST2 cells; 90 min at 37 C; luminescence; read-out: Internalization EC50. In outline: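 Four-parameter nonlinear fits of background-corrected luminescence (duplicate means) gave IC50s. NDCs were serially diluted 1:3 over 11 points from a 10 uM final top concentration and incubated 90 min at 37 C with human SST2 CHO-K1 cells plated 48 h earlier at 2500/well. Beta-Glo read-out developed 60 min at RT.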

For assay [2], the system named is NCI-H524 human small cell lung cancer cells. In words: H524 assay: inhibition of cell proliferation (CellTiter Glo). The note with it: 2 h treatment, washout, additional 70 h incubation. In outline: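 Proliferation was measured by CellTiter Glo 70 h after a washout that followed a 2 h pulse of NDC. Doses were an 11-point, two-fold dilution series from 1 uM. IC50 was fitted with a four-parameter model to luminescence-based % inhibition relative to control cells.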
(Cellular ATP, detected with luciferase, serves as a proxy for viable cell number.)

*1 amine or outer side, *2 acyl side, *3 side chain or, on linkers, in order; H or OH if unused. Where a SMILES comes first, the peptide text is derived from it. [ ]: non-standard residue; d: D form. The star is where a group is joined. X4 = Cc1cc(F)cc(-c2cnc(NCCNC(=O)CCOCCC(=O)*)c(-c3nc4ccc(Cl)cc4[nH]3)c2N2CCC(N)CC2)c1; Dolaproine = CO[C@@H]([C@@H]1CCCN1)[C@@H](C)C(=O)O; Dil = CC[C@H](C)[C@H](NC)[C@@H](CC(=O)O)OC; PABC = O=C(OCc1ccc(N[*:1])cc1)[*:2]; X2 = C[C@@H](N*)[C@@H](O)c1ccccc1; Cit = NC(=O)NCCC[C@H](N)C(=O)O; NMeV = CN[C@H](C(=O)O)C(C)C; PEG1 = NCCOCCC(=O)O

T2 sequence (P30874 whole entry): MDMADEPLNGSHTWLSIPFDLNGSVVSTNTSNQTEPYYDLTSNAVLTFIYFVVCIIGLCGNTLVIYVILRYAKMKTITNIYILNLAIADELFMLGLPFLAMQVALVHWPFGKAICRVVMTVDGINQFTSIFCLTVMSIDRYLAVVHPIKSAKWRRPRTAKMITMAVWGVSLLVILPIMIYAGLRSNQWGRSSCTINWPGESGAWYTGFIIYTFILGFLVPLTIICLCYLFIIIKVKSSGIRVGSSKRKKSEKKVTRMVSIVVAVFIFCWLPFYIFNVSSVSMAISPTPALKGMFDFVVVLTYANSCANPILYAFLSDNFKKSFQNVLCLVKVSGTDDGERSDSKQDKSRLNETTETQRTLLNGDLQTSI
T1 sequence (P30874 whole entry): as above

For orientation: EC50 means the concentration needed to bring the measured effect to its halfway point. For the compound `CC[C@H](C)[C@@H]([C@@H](CC(=O)N1CCC[C@H]1[C@H](OC)[C@@H](C)C(=O)N[C@H](C)[C@@H](O)c1ccccc1)OC)N(C)C(=O)[C@@H](NC(=O)[C@H](C(C)C)N(C)C(=O)OCc1ccc(NC(=O)[C@H](C)NC(=O)[C@@H](NC(=O)CCOCCC(=O)NCCNc2ncc(-c3cc(C)cc(F)c3)c(N3CCC(N)CC3)c2-c2nc3cnccc3[nH]2)C(C)C)c(O[C@@H]2O[C@H](C(=O)O)[C@@H](O)[C@H](O)[C@H]2O)c1)C(C)C` [Compound 127], the EC50 stood at 1.6 nM in assay [1], 290 nM at SST2 and 170 nM in assay [2].
For `CC[C@H](C)[C@@H]([C@@H](CC(=O)N1CCC[C@H]1[C@H](OC)[C@@H](C)C(=O)N[C@H](C)[C@@H](O)c1ccccc1)OC)N(C)C(=O)[C@@H](NC(=O)[C@H](C(C)C)N(C)C(=O)OCc1ccc(NC(=O)[C@H](CCCNC(N)=O)NC(=O)[C@@H](NC(=O)CCOCCC(=O)NCCNc2ncc(-c3cc(C)cc(F)c3)c(N3CCC(N)CC3)c2-c2nc3ccc(Cl)cc3[nH]2)C(C)C)c(O[C@@H]2O[C@H](C(=O)NCC(=O)NCCCCCCO[PH](=O)OC3CCC(c4ccccc4)(c4ccccc4)CC3)[C@@H](O)[C@H](O)[C@H]2O)c1)C(C)C` (stereo partly drawn) [Compound 234], in that order: 0.55 nM, 6.6 nM and 140 nM.
As for `CC[C@H](C)[C@@H]([C@@H](CC(=O)N1CCC[C@H]1[C@H](OC)[C@@H](C)C(=O)N[C@H](C)[C@@H](O)c1ccccc1)OC)N(C)C(=O)[C@@H](NC(=O)[C@H](C(C)C)N(C)C(=O)OCc1ccc(NC(=O)[C@H](C)NC(=O)[C@@H](NC(=O)[C@H](CS(=O)(=O)O)NC(=O)CCOCCC(=O)NCCNc2ncc(-c3cc(C)cc(F)c3)c(N3CCC(N)CC3)c2-c2nc3ccc(Cl)cc3[nH]2)C(C)C)cc1C(=O)NCCN)C(C)C` [Compound 27], the EC50 in assay [1] is 0.12 nM; at SST2, 7.2 nM; in assay [2], 190 nM.
Turning to `CC[C@H](C)[C@@H]([C@@H](CC(=O)N1CCC[C@H]1[C@H](OC)[C@@H](C)C(=O)N[C@H](C)[C@@H](O)c1ccccc1)OC)N(C)C(=O)[C@@H](NC(=O)[C@H](C(C)C)N(C)C(=O)OCc1ccc(NC(=O)[C@H](C)NC(=O)[C@@H](NC(=O)CN(C)C(=O)CCOCCC(=O)NCCNc2ncc(-c3cc(C)cc(F)c3)c(N3CCC(N)CC3)c2-c2nc3ccc(Cl)cc3[nH]2)C(C)C)c(O[C@@H]2O[C@H](C(=O)O)[C@@H](O)[C@H](O)[C@H]2O)c1)C(C)C` [Compound 111], the EC50 in assay [1] turned out to be 0.046 nM; on SST2, 8.7 nM; in assay [2] it was 19 nM.
Turning to `CC[C@H](C)[C@@H]([C@@H](CC(=O)N1CCC[C@H]1[C@H](OC)[C@@H](C)C(=O)N[C@H](C)[C@@H](O)c1ccccc1)OC)N(C)C(=O)[C@@H](NC(=O)[C@H](C(C)C)N(C)C(=O)OCc1ccc(NC(=O)[C@H](CCCNC(N)=O)NC(=O)[C@@H](NC(=O)[C@H](CCC(N)=O)NC(=O)CCOCCC(=O)NCCNc2ncc(-c3cc(C)cc(F)c3)c(N3CCC(N)CC3)c2-c2nc3ccc(Cl)cc3[nH]2)C(C)C)cc1C(=O)O)C(C)C` [Compound 5], the values for the EC50 (in assay [1]; on SST2; in assay [2]) were 0.29 nM, 2.2 nM and 520 nM, respectively.
With `CC[C@H](C)[C@@H]([C@@H](CC(=O)N1CCC[C@H]1[C@H](OC)[C@@H](C)C(=O)N[C@H](C)[C@@H](O)c1ccccc1)OC)N(C)C(=O)[C@@H](NC(=O)[C@H](C(C)C)N(C)C(=O)OCc1ccc(NC(=O)[C@H](CCCNC(N)=O)NC(=O)[C@@H](NC(=O)CCOCCC(=O)NCCNc2ncc(-c3cc(C)cc(F)c3)c(N3CCC(N)CC3)c2-c2nc3ccc(Cl)cc3[nH]2)C(C)C)cc1C(=O)NOCCN)C(C)C` [Compound 88], the EC50 amounted to 0.25 nM in assay [1], 3.1 nM at SST2 and 84 nM in assay [2].
For `CC[C@H](C)[C@@H]([C@@H](CC(=O)N1CCC[C@H]1[C@H](OC)[C@@H](C)C(=O)N[C@H](C)[C@@H](O)c1ccccc1)OC)N(C)C(=O)[C@@H](NC(=O)[C@H](C(C)C)N(C)C(=O)OCc1ccc(NC(=O)[C@H](CCCNC(N)=O)NC(=O)[C@@H](NC(=O)C[C@@H](N)C(=O)NCCOCCC(=O)NCCNc2ncc(-c3cc(C)cc(F)c3)c(N3CCC(N)CC3)c2-c2nc3ccc(Cl)cc3[nH]2)C(C)C)cc1C(=O)N1CC(C(=O)O)C1)C(C)C` [Compound 73], in that order: 0.06 nM, 3.1 nM and 110 nM.
For `CC[C@H](C)[C@@H]([C@@H](CC(=O)N1CCC[C@H]1[C@H](OC)[C@@H](C)C(=O)N[C@H](C)[C@@H](O)c1ccccc1)OC)N(C)C(=O)[C@@H](NC(=O)[C@H](C(C)C)N(C)C(=O)OCc1ccc(NC(=O)[C@H](C)NC(=O)[C@@H](NC(=O)CCOCCC(=O)NCCNc2ncc(-c3cc(C)cc(F)c3)c(N3CCC(N)CC3)c2-c2nc3ccc(Cl)cc3[nH]2)C(C)C)c(O[C@@H]2O[C@H](C(N)=O)[C@@H](O)[C@H](O)[C@H]2O)c1)C(C)C` [Compound 34], in that order: 0.12 nM, 4.4 nM and 1.6 nM.
For `CC[C@H](C)[C@@H]([C@@H](CC(=O)N1CCC[C@H]1[C@H](OC)[C@@H](C)C(=O)N[C@H](C)[C@@H](O)c1ccccc1)OC)N(C)C(=O)[C@@H](NC(=O)[C@H](C(C)C)N(C)C(=O)OCc1ccc(NC(=O)[C@H](CCCNC(N)=O)NC(=O)[C@@H](NC(=O)c2cn(CCOCCC(=O)NCCNc3ncc(-c4cc(C)cc(F)c4)c(N4CCC(N)CC4)c3-c3nc4ccc(Cl)cc4[nH]3)nn2)C(C)C)cc1)C(C)C` [Compound 142], in that order: 0.37 nM, 6.3 nM and 790 nM.
Consider `CC[C@H](C)[C@@H]([C@@H](CC(=O)N1CCC[C@H]1[C@H](OC)[C@@H](C)C(=O)N[C@H](C)[C@@H](O)c1ccccc1)OC)N(C)C(=O)[C@@H](NC(=O)[C@H](C(C)C)N(C)C(=O)OCc1ccc(NC(=O)[C@H](CCCNC(N)=O)NC(=O)[C@@H](NC(=O)[C@H](CCC(=O)O)NC(=O)CCOCCC(=O)NCCNc2ncc(-c3cc(C)cc(F)c3)c(N3CCC(N)CC3)c2-c2nc3ccc(Cl)cc3[nH]2)C(C)C)c(OC)c1)C(C)C` [Compound 16], for which the EC50 was found to be 0.083 nM in assay [1], 7.8 nM on SST2 and 160 nM in assay [2].
For `CC[C@H](C)[C@@H]([C@@H](CC(=O)N1CCCC1[C@H](OC)[C@@H](C)C(=O)N[C@H](C)[C@@H](O)c1ccccc1)OC)N(C)C(=O)[C@@H](NC(=O)[C@H](C(C)C)N(C)C(=O)OCc1ccc(NC(=O)[C@H](CCCNC(N)=O)NC(=O)[C@@H](NC(=O)[C@H](Cc2c[nH]cn2)NC(=O)CCOCCC(=O)NCCNc2ncc(-c3cc(C)cc(F)c3)c(N3CCC(N)CC3)c2-c2nc3ccc(Cl)cc3[nH]2)C(C)C)c(OCC(=O)O)c1)C(C)C` (stereo partly drawn) [Compound 202], in that order: 0.14 nM, 4.6 nM and 14 nM.
In the case of `CC[C@H](C)[C@@H]([C@@H](CC(=O)N1CCC[C@H]1[C@H](OC)[C@@H](C)C(=O)N[C@H](C)[C@@H](O)c1ccccc1)OC)N(C)C(=O)[C@@H](NC(=O)[C@H](C(C)C)N(C)C(=O)OCc1ccc(NC(=O)[C@H](CCCNC(N)=O)NC(=O)[C@@H](NC(=O)c2cc(NC(=O)C[C@@H](N)C(=O)NCCOCCC(=O)NCCNc3ncc(-c4cc(C)cc(F)c4)c(N4CCC(N)CC4)c3-c3nc4ccc(Cl)cc4[nH]3)cc(C(=O)NCC(=O)O)c2)C(C)C)cc1)C(C)C` [Compound 156], the 50% effective concentration (EC50) in assay [1] is 0.28 nM; on SST2, 14 nM; in assay [2], 140 nM.
Consider `CC[C@H](C)[C@@H]([C@@H](CC(=O)N1CCC[C@H]1[C@H](OC)[C@@H](C)C(=O)N[C@H](C)[C@@H](O)c1ccccc1)OC)N(C)C(=O)[C@@H](NC(=O)[C@H](C(C)C)N(C)C(=O)OCc1ccc(NC(=O)[C@H](CCCNC(N)=O)NC(=O)[C@@H](NC(=O)CCOCCNC(=O)[C@H](CCC(=O)O)NC(=O)[C@H](CCC(N)=O)NC(=O)CCOCCC(=O)NCCNc2ncc(-c3cc(C)cc(F)c3)c(N3CCC(N)CC3)c2-c2nc3ccc(Cl)cc3[nH]2)C(C)C)cc1)C(C)C` [Compound 191] (X4-QE[PEG1]V[Cit][PABC][NMeV]V[Dil][Dolaproine]-X2), for which the EC50 in assay [1] stood at 1.9 nM; at SST2, 38 nM; in assay [2] it was 1700 nM.
For `CC[C@H](C)[C@@H]([C@@H](CC(=O)N1CCC[C@H]1[C@H](OC)[C@@H](C)C(=O)N[C@H](C)[C@@H](O)c1ccccc1)OC)N(C)C(=O)[C@@H](NC(=O)[C@H](C(C)C)N(C)C(=O)OCc1ccc(NC(=O)[C@H](C)NC(=O)[C@@H](NC(=O)CCOCCC(=O)NCCNc2ncc(-c3cc(C)cc(F)c3)c(N3CCC(N)CC3)c2-c2nc3ccc(F)cc3[nH]2)C(C)C)c(O[C@@H]2O[C@H](C(=O)O)[C@@H](O)[C@H](O)[C@H]2O)c1)C(C)C` [Compound 138], in that order: 0.072 nM, 4.4 nM and 20 nM.
For `CC[C@H](C)[C@@H]([C@@H](CC(=O)N1CCC[C@H]1[C@H](OC)[C@@H](C)C(=O)N[C@H](C)[C@@H](O)c1ccccc1)OC)N(C)C(=O)[C@@H](NC(=O)[C@H](C(C)C)N(C)C(=O)OCc1ccc(NC(=O)[C@H](CCCNC(N)=O)NC(=O)[C@@H](NC(=O)c2cc(NCCOCCC(=O)NCCNc3ncc(-c4cc(C)cc(F)c4)c(N4CCC(N)CC4)c3-c3nc4ccc(Cl)cc4[nH]3)cc(C(=O)NCCN(CC(=O)O)CC(=O)O)c2)C(C)C)cc1C(=O)NCCN)C(C)C` [Compound 58], in that order: 0.26 nM, 14 nM and 910 nM.
